In the assay the test system is PTSD symptoms (PCL-C). The assay can be described thus: PTSD Checklist-Civilian Version (PCL-C) self-report scale at baseline and 4 weeks after starting topiramate. As to conditions: 17 patients. It is filed as in vivo, human. The procedure: Topiramate was added naturalistically to existing pharmacotherapy (see Table 1 for concomitant medications at start of trial), starting at 25 mglday and increasing whenever possible by 25 to 50 mg/day every 3 to 4 days to clinical response. Target symptoms were DSM-IV PTSD criterion B symptoms of nightmares (N =24) and intrusions (intrusive recollections/flashbacks, N=35) involving re-experiencing of traumas. Definitions of improvement, as assessed from patient self-report, included “partial response” as “definite reduction in intensity and frequency of nightmares or intrusions”, and “full response” as “complete cessation of nightmares and intrusions for a sustained period”. Following the seminal observations, in order to systematically identify responsive symptoms, the next 17 patients completed a self-report scale, the PTSD Checklist—Civilian Version (PCL-C)15, at baseline and at 4 weeks after starting topiramate. The patients were instructed to complete the PCL-C for experiences corresponding to traumas consistent with DSM-IV criterion A for PTSD. Paired ttest scores for the PCL-C were calculated with Jandel SigmaStat® v. 2.0.
Response was also assessed in 17 patients who completed the PCL-C prior to topiramate therapy and at Week 4 of treatment: mean total PCL-C scores were 60±10.4 at baseline and 39±10.5 at Week 4 (instrument range: 17 to 85, threshold for active PTSD=[…], paired t-test). Adjusting the baseline score by subtracting by 17 to set the score for no PTSD symptoms to zero, there was a 48% reduction (59.8 to 38.8)/(59.8-17) in total score. Subscale score reductions were similar for criterion B (re-experiencing), criterion C (avoidance), and criterion D (hyperarousal) symptoms: 60%, 49%, and 42%, respectively.

Take `CC1(C)O[C@@H]2[C@@H](CO[C@@]3(COS(N)(=O)=O)OC(C)(C)O[C@@H]23)O1` [Topiramate, 2,3:4,5-bis-O-(1-methylethylidene)-β-D-fructopyranose sulfamate]: under “baseline vs Week 4”, the “PCL-C subscale score reduction, criterion B (re-experiencing)” value was found to be 60%; the “PCL-C subscale score reduction, criterion C (avoidance)” value is on record as 49%; the “PCL-C subscale score reduction, criterion D (hyperarousal)” value was found to be 42%; the “Reduction in total PCL-C score (baseline adjusted by subtracting 17)” value came to 48%. Moreover, the “Mean total PCL-C score at Week 4” value (baseline 60±10.4, instrument range 17 to 85, threshold for active PTSD=50) is reported as 39±10.5.

Values taken from patent US6486198B1, “Compounds and methods for the treatment of post traumatic stress disorder” (priority 1999, dated 2002).
